Laboratory results published in patent US8554305B2, “Method and apparatus for providing pulses inhalation of 17O2 for magnetic resonance imaging of cerebral metabolism” (The Trustees of the University of Pennsylvania, priority 2007, dated 2013).

How the values were obtained:
[1] = T1ρ relaxivity in H2^17O doped phosphate buffered saline phantoms; type: physicochemical; conditions: spin lock amplitude 100 Hz, 1.5T
Description: The ability of the sequence to detect changes in H2^17O concentration was measured by imaging six 15 mL conical tubes filled with 1× Phosphate Buffered Saline doped with H2^17O (Isotec, Miamisberg, Ohio) in steps of 5 mM from 20 mM (natural abundance) to 45 mM. These tubes were sealed and placed into a 9 cm jar filled with water. A receive only loop coil was placed around the jar and used in combination with the body transmit coil. Cross-sectional images of the tubes were acquired with a spin lock amplitude of 100 Hz and spin lock times of 200, 400, 600, 800, and 1000 msec. Imaging parameters are: FoV 90 mm^2, ST 5 mm, TR/TE 10.4/5.2 ms, Matrix 128^2, BW 130 Hz/Px, α=180°.
The concentrations of the phantoms were determined experimentally according to the following equation:
[formula] Where fn is the natural abundance [H2^17O], S is the signal from a pixel or ROI with natural abundance (NA) [H2^17O] or [H2^17O] added (^17O) taken as a proton density weighted image to account for coil sensitivity or when T1ρ pre-encoded (T1ρ). R1ρ is the relaxivity due to H2^17O and TSL is the spin lock time.
FIG. 12 provides cross-sectional images of 15 mL conical tubes filled with phosphate buffered saline and doped with increasing amounts of H2^17O to concentrations from 20 mM (natural abundance) to 45 mM (25 mM added).

[2] = measurements made in tissue phantoms; cited from earlier work
[3] = Serial arterial blood sampling and ^17O NMR spectroscopy of serum during and after 1 minute of ^17O2 delivery; type: in vivo, pig
Description: During imaging, arterial blood sampling was performed on several occasions. An optimized protocol was developed and repeated. An arterial catheter was placed under ultrasound guidance into the femoral artery in the large animal fluoroscopy suite. Approximately 2 cc of blood was collected over 3-5 seconds into each Vacutainer Serum Separator Tube (Becton-Dickinson, #367983) at a rate of one sample each 10 seconds for the first 12 samples and then 60 seconds each for six more samples. Four control samples were taken before the experiment began. The tubes used are designed to reseal immediately after needle puncture. Their ability to remain sealed was tested by taking several tubes at random, creating a strong negative pressure inside the tube with a vacuum pump attached to a needle, and then repeated puncture with larger diameter needles than used for blood sampling. The pressure inside the tubes was checked after over a dozen punctures and had changed less than 10%.
A concern is that water ^17O will exchange with ambient CO2 through bicarbonate ion, a very fast reaction when catalyzed by carbonic anhydrase as in whole blood (Mills G A, Urey H C. The Kinetics of Isotopic Exchange between Carbon Dioxide, Bicarbonate Ion, Carbonate Ion and Water. J Am Chem Soc 1940; 62 (5):1019-1026). To minimize this effect, serum was separated by centrifugation soon after the experiment. Tubes were then frozen at −20 C and kept sealed until the time of analysis. Centrifugation places a gel between the serum and red blood cells in these tubes to fully separate the two. This procedure serves to protect the samples in two ways. […]
An 11.7T Bruker DMX400 Avance Spectrometer equipped with a 1H/X nucleus decoupler probe tuned to ^17O was used to measure 1 mL of each sample loaded into 5 mm ID NMR tubes just before analysis. Spectra were recorded without lock at room temp. […]
Blood sampling was performed during scanning on two separate occasions. […] Serum concentration of H2^17O was calculated by integrating the H2^17O peak obtained by ^17O spectroscopy of the blood samples taken at the given time points. […]

pig brain = assay: Pulsed ^17O2 inhalation (2 breaths, 40% enrichment) with T1ρ-weighted MRI of pig brain at 1.5 Tesla; type: in vivo; conditions: 70 Kg pig; ventricle signal normalized to whole brain
Description: To further test the apparatus 100, a 70 Kg Yorkshire pig was anesthetized with intramuscular doses of ketamine (25 mg/Kg) and xylazine (2.5 mg/Kg) and orally intubated. General anesthesia was maintained throughout the experiment with intravenous doses of ketamine (1-2 mg/Kg/hr) and diazepam (0.5-1 mg/Kg/hr). Once placed in the MRI scanner 114 in the prone position, the endotracheal tube was connected to the circuit and mechanical ventilation commenced in volume control mode with a tidal volume of 16.2 ml/Kg, a respiratory rate of 6 breaths/min, I:E ratio of 1:1 and zero end-expiratory pressure. After collecting baseline images on room air, the source valve was switched to 100% O2. After 5 minutes to allow for denitrogenation, further baseline images were obtained while breathing 100% oxygen. […]
Overlay of the signal decreases, ranging from 0% decrease to 1% decrease, an average of 40-50 seconds after the start of the ^17O2 breaths, as determined by indirect T1ρ imaging with a spin-lock sequence. […]
The time course of arterial ^17O2 concentrations, estimated from a model of alveolar gas dilution (appendix), is shown in FIG. 5a. […] Inspiratory tidal volume is measured from the calibrated output of the inhalation pump 102. […]

| R1ρ(100 Hz) [1] [mM⁻¹ ms⁻¹] | delay between the start of ^17O2 delivery and the start of wash-in in arterial blood ([3]; 19.8 kg pig, second experiment) [s] | delay between the start of ^17O2 delivery and the start of wash-in in arterial blood ([3]; 40.8 kg pig, 80% N2/20% O2 (70% ^17O enriched) for 60 seconds, femoral artery serum) | time when recirculation begins ([3]; arterial blood sampling and analysis of mH2^17O content, pigs) [s] | SMILES | R1ρ, relaxation enhancement of tissue due to H2^17O [2] | delay of decrease in scaled signal in the cerebral ventricle after the initial inhalation of ^17O2 (pig brain) |
| --- | --- | --- | --- | --- | --- | --- |
| 1.37e-05 | ~70 | about 90 seconds | 60 to 80 | [17OH2] [H2^17O] | 5.91*10^−6 (μmol/g water)^−1 ms^−1 |  |
|  |  |  |  | O=O [^17O2] |  | about 110 seconds |
